Assay results as given in patent US7476650B2, “Enzyme inhibition” (Yale University, priority 1999, dated 2009).

The compounds below were run against T1, chymotrypsin-like activity of purified bovine erythrocyte 20S proteasome (Bos taurus, UniProt Q32KL2) (assay: Enzyme kinetic assay, chymotrypsin-like activity (Suc-LLVY-AMC)). Settings: Table 3.
T1 construct: from tissue; host or cells: bovine erythrocytes (red blood cells)
Type: biochemical
Excerpt: (§1) We investigated the potency of inhibitors of various length. Mono-, di-,tri- and tetraleucine α′,β′-epoxides were ranked by determination of the kobs/[I] values for inhibition of the chymotrypsin-like, trypsin-like, and PGPH activities of purified bovine erythrocyte 20S proteasome.
(§2) Purified bovine erythrocyte proteasome was enzymatically assayed using a variety of different substrates and inhibitors. In order to evaluate the rates of proteolytic inactivation by inhibitors, kassociation (kobs/[I]) values were determined using fluorogenic peptide substrates over a range of inhibitor concentrations.

Compound	kobs/[I] Chymotrypsin-like
isooctanoyl-Ser-Leu-α′,β′-epoxyketone [Eponemycin, reference compound]	58 ± 14 M⁻¹ s⁻¹
CC[C@H](C)[C@H](NC(C)=O)C(=O)N[C@H](C(=O)N[C@@H](CC(C)C)C(=O)[C@@]1(C)CO1)C(C)C [Ac-IVL-Ex]	5 ± 0.1 M⁻¹ s⁻¹

Same assay, conditions: pH 8; Table 1; inhibitor concentration range in parentheses; read-out: kobs/[I] Chymotrypsin-like activity

Compound	kinact/KI
CC(=O)N[C@@H](CC(C)C)C(=O)N[C@@H](CC(C)C)C(=O)N[C@@H](CC(C)C)C(=O)[C@@]1(C)CO1	780 M⁻¹ s⁻¹
CC(=O)N[C@@H](CC(C)C)C(=O)N[C@@H](CC(C)C)C(=O)N[C@@H](CC(C)C)C(=O)N[C@@H](CC(C)C)C(=O)[C@@]1(C)CO1	14000 M⁻¹ s⁻¹
CC(=O)N[C@@H](CC(C)C)C(=O)N[C@@H](CC(C)C)C(=O)[C@@]1(C)CO1	3.1 M⁻¹ s⁻¹

Same assay, conditions: pH 8; Table 4; inhibitor concentration range in parentheses; read-out: kassoc = kobs/[I] Chymotrypsin-like activity

Compound	kinact/KI
CC(C)[C@H](O)[C@@]12NC(=O)[C@H](C)[C@@H]1OC2=O [drawing 17, reference compound]	7400 M⁻¹ s⁻¹
CC(C)C[C@@H](/C=C/S(C)(=O)=O)NC(=O)[C@H](CC(C)C)NC(=O)[C@H](CC(C)C)NC(=O)Cc1cc(N)c(O)c(I)c1 [reference compound]	5000 M⁻¹ s⁻¹
CC(C)C[C@H](NC(=O)[C@H](Cc1ccccc1)NC(=O)c1cnccn1)B(O)O [reference compound]	53000 M⁻¹ s⁻¹

Each compound was assayed against T2, trypsin-like activity of purified bovine erythrocyte 20S proteasome (Bos taurus, UniProt Q2TBP0) (assay: Enzyme kinetic assay, trypsin-like activity (Boc-LRR-AMC)). Settings: Examples 9 and 10.
T2 construct: from tissue; host or cells: bovine erythrocytes (red blood cells)
Type: biochemical
Excerpt: as §1, §2

Compound	kobs/[I] for tryptic-like activity using Boc-LRR-AMC
CC(=O)N[C@@H](CC(C)C)C(=O)N[C@@H](CC(C)C)C(=O)N[C@@H](CC(C)C)C(=O)N[C@@H](CC(C)C)C(=O)[C@@]1(C)CO1	not measurable

Same assay, conditions: Table 3

Compound	kobs/[I] Trypsin-like
isooctanoyl-Ser-Leu-α′,β′-epoxyketone [Eponemycin, reference compound]	17 ± 3 M⁻¹ s⁻¹
CC[C@H](C)[C@H](NC(C)=O)C(=O)N[C@H](C(=O)N[C@@H](CC(C)C)C(=O)[C@@]1(C)CO1)C(C)C [Ac-IVL-Ex]	6.7 ± 0.1 M⁻¹ s⁻¹

Same assay, conditions: pH 8; Table 1; inhibitor concentration range in parentheses; read-out: kobs/[I] trypsin-like activity

Compound	kinact/KI
CC(=O)N[C@@H](CC(C)C)C(=O)N[C@@H](CC(C)C)C(=O)N[C@@H](CC(C)C)C(=O)[C@@]1(C)CO1	5.1 M⁻¹ s⁻¹

Same assay, conditions: pH 8; Table 4; inhibitor concentration range in parentheses; read-out: kassoc = kobs/[I] Trypsin-like activity

Compound	kinact/KI
CC(C)[C@H](O)[C@@]12NC(=O)[C@H](C)[C@@H]1OC2=O [drawing 17, reference compound]	68 M⁻¹ s⁻¹
CC(C)C[C@@H](/C=C/S(C)(=O)=O)NC(=O)[C@H](CC(C)C)NC(=O)[C@H](CC(C)C)NC(=O)Cc1cc(N)c(O)c(I)c1 [reference compound]	3.4 M⁻¹ s⁻¹

What follows are compounds tested against T3, PGPH activity of purified bovine erythrocyte 20S proteasome (Bos taurus, UniProt Q3MHN0) (assay: Enzyme kinetic assay, PGPH activity (Z-LLE-AMC)). Settings: Table 3.
T3 construct: from tissue; host or cells: bovine erythrocytes (red blood cells)
Type: biochemical
Method: as §1, with “proteasome. Enzyme kinetic assays were performed as described in Example 2.” for “proteasome.”
as §2

Compound	kobs/[I] PGPH
isooctanoyl-Ser-Leu-α′,β′-epoxyketone [Eponemycin, reference compound]	175 ± 2 M⁻¹ s⁻¹
CC[C@H](C)[C@H](NC(C)=O)C(=O)N[C@H](C(=O)N[C@@H](CC(C)C)C(=O)[C@@]1(C)CO1)C(C)C [Ac-IVL-Ex]	14.6 ± 4.2 M⁻¹ s⁻¹

Same assay, conditions: in words; data not shown for Glu compounds

Compound	selectivity for the PGPH activity
CC(=O)N1CCC[C@H]1C(=O)N[C@@H](Cc1ccccc1)C(=O)N[C@@H](CCC(=O)O)C(=O)[C@@]1(C)CO1 [Ac-Pro-Phe-Glu-α′,β′-epoxyketone]	did not display any significant selectivity
isooctanoyl-Ser-Glu-α′,β′-epoxyketone	poor PGPH-selective inhibitors
CC[C@H](C)[C@H](NC(C)=O)C(=O)N[C@H](C(=O)N[C@H](C(=O)N[C@@H](CCC(=O)O)C(=O)[C@@]1(C)CO1)[C@@H](C)O)[C@@H](C)CC [Ac-Ile-Ile-Thr-Glu-α′,β′-epoxyketone]	did not display any significant selectivity
CC[C@H](C)[C@H](NC(C)=O)C(=O)N[C@H](C(=O)N[C@@H](CCC(=O)O)C(=O)[C@@]1(C)CO1)C(C)C [Ac-Ile-Val-Glu-α′,β′-epoxyketone]	did not display any significant selectivity
isooctanoyl-Thr-Glu-α′,β′-epoxyketone	poor PGPH-selective inhibitors
isooctanoyl-Ser-Leu-α′,β′-epoxyketone [Eponemycin, reference compound]	modest selectivity toward the PGPH activity
CC(=O)N[C@@H](C)C(=O)N[C@H](C(=O)N[C@@H](CCC(=O)O)C(=O)[C@@]1(C)CO1)C(C)C [Ac-Ala-Val-Glu-α′,β′-epoxyketone]	did not display any significant selectivity
CC(=O)NCC(=O)N1CCC[C@H]1C(=O)N[C@@H](Cc1ccccc1)C(=O)N[C@@H](CCC(=O)O)C(=O)[C@@]1(C)CO1 [Ac-Gly-Pro-Phe-Glu-α′,β′-epoxyketone]	did not display any significant selectivity

Same assay, conditions: pH 8; Table 1; inhibitor concentration range in parentheses; read-out: kobs/[I] PGPH activity

Compound	kinact/KI
CC(=O)N[C@@H](CC(C)C)C(=O)N[C@@H](CC(C)C)C(=O)N[C@@H](CC(C)C)C(=O)[C@@]1(C)CO1	120 M⁻¹ s⁻¹
CC(=O)N[C@@H](CC(C)C)C(=O)N[C@@H](CC(C)C)C(=O)N[C@@H](CC(C)C)C(=O)N[C@@H](CC(C)C)C(=O)[C@@]1(C)CO1	9.2 M⁻¹ s⁻¹

Same assay, conditions: pH 8; Table 4; inhibitor concentration range in parentheses; read-out: kassoc = kobs/[I] PGPH activity

Compound	kinact/KI
CC(C)[C@H](O)[C@@]12NC(=O)[C@H](C)[C@@H]1OC2=O [drawing 17, reference compound]	47 M⁻¹ s⁻¹
CC(C)C[C@@H](/C=C/S(C)(=O)=O)NC(=O)[C@H](CC(C)C)NC(=O)[C@H](CC(C)C)NC(=O)Cc1cc(N)c(O)c(I)c1 [reference compound]	4 M⁻¹ s⁻¹
CC(C)C[C@H](NC(=O)[C@H](Cc1ccccc1)NC(=O)c1cnccn1)B(O)O [reference compound]	3200 M⁻¹ s⁻¹
